Assay results taken from US9302999B2, “Substituted triazoles as herbicides” (E. I. DU PONT DE NEMOURS AND COMPANY, priority 2012, dated 2016).

Columns and labels:
Format in all cases: in vivo
[1] = system: windgrass (Apera spica-venti); experiment: Test D pre-/postemergence: windgrass
Summary of the method: (§1)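 Scores run from 0 (no effect) to 100 (complete control), assigned by visual comparison with controls after 14 to 21 days in a controlled environment. Both preemergence application to silt loam and postemergence application to 1- to 4-leaf plants were tested.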

[2] = system: deadnettle (henbit deadnettle, Lamium amplexicaule); experiment: Test D pre-/postemergence: deadnettle
Summary of the method: as §1

[3] = system: chamomile (scentless chamomile, Matricaria inodora); experiment: Test D pre-/postemergence: chamomile
Summary of the method: as §1

[4] = system: surinam grass (Brachiaria decumbens); experiment: Test F pre-/postemergence: surinam grass; settings: Preemergence, scale 0 to 100
Summary of the method: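 0–100 visual control scores, taken 14–21 d after application in the greenhouse. Preemergence treatment was made to silt loam soil at sowing. Postemergence sprays hit 1- to 4-leaf plants (2–18 cm) in peat/vermiculite mix. Surfactant-containing non-phytotoxic solvent served as the vehicle.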

[5] = system: Waterhemp; experiment: Test C preemergence: waterhemp; settings: 62 g ai/ha, scale of 0 to 100, 0 is no effect, 100 is complete control
Text: Seeds of plant species selected from blackgrass (Alopecurus myosuroides), bromegrass, downy (downy bromegrass, Bromus tectorum), foxtail, green (green foxtail, Setaria viridis), ryegrass, Italian (Italian ryegrass, Lolium multiflorum), winter wheat (Triticum aestivum), wild oat (Avena fatua), galium (catchweed bedstraw, Galium aparine), bermudagrass (Cynodon dactylon), surinam grass (Brachiaria decumbens), cocklebur (common cocklebur, Xanthium strumarium), corn (Zea mays), large crabgrass (Digitaria sanguinalis), woolly cupgrass (Eriochloa villosa), foxtail, giant (giant foxtail, Setaria faberii), goosegrass (Eleusine indica), johnsongrass (Sorghum halepense), kochia (Kochia scoparia), lambsquarters (Chenopodium album), morningglory (Ipomoea coccinea), nightshade (eastern black nightshade, Solanum ptycanthum), nutsedge, yellow (yellow nutsedge, Cyperus esculentus), pigweed (Amaranthus retroflexus), ragweed (common ragweed, Ambrosia elation), soybean (Glycine max), common (oilseed) sunflower (Helianthus annuus), Russian thistle (Salsola kali) and velvetleaf (Abutilon theophrasti) were planted into a blend of loam soil and sand and treated preemergence with test chemicals formulated in a non-phytotoxic solvent mixture which included a surfactant.
Treated plants and controls were maintained in a greenhouse for 13 to 15 days, after which time all species were compared to controls and visually evaluated. Plant response ratings, summarized in Table C, are based on a scale of 0 to 100 where 0 is no effect and 100 is complete control. A dash (-) response means no test result.

[6] = system: field violet (Viola arvensis); experiment: Test D pre-/postemergence: field violet
Summary of the method: as §1

[7] = Postemergence, 62 g ai/ha, scale 0 to 100 (0 no effect, 100 complete control)
[8] = Postemergence, 125 g ai/ha, scale 0 to 100, 0 no effect, 100 complete control
[9] = Postemergence, 16 g ai/ha, scale 0 to 100
[10] = Preemergence, 16 g ai/ha, scale 0 to 100, 0 no effect, 100 complete control
[11] = Preemergence, 31 g ai/ha, scale 0 to 100, 0 no effect, 100 complete control
[12] = Preemergence, 62 g ai/ha, scale 0 to 100
[13] = Preemergence, 125 g ai/ha, scale 0 to 100
[14] = Postemergence, 31 g ai/ha, scale 0 to 100 (0 no effect, 100 complete control)

CCc1nn(-c2ccc(C(F)(F)F)cc2)nc1Cc1ccnc(C(F)(F)F)c1 [Compound 155]
Plant response rating: Windgrass [1, 7]: 80 | Plant response rating: Windgrass [1, 8]: 95 | Plant response rating, Windgrass [1, 9]: 20 | Plant response rating, Windgrass ([1]; Postemergence, 31 g ai/ha, scale 0 to 100): 70 | Plant response rating, Windgrass [1, 10]: 5 | Plant response rating, Windgrass [1, 11]: 10 | Plant response rating, Windgrass [1, 12]: 85 | Plant response rating, Windgrass [1, 13]: 100 | Plant response rating: Deadnettle [2, 14]: 75 | Plant response rating: Deadnettle [2, 7]: 90 | Plant response rating: Deadnettle [2, 8]: 100 | Plant response rating, Deadnettle [2, 9]: 75 | Plant response rating, Deadnettle [2, 10]: 5 | Plant response rating, Deadnettle [2, 11]: 5 | Plant response rating, Deadnettle [2, 12]: 80 | Plant response rating, Deadnettle [2, 13]: 95 | Plant response rating: Chamomile [3, 14]: 70 | Plant response rating: Chamomile [3, 7]: 80 | Plant response rating: Chamomile [3, 8]: 85 | Plant response rating, Chamomile [3, 9]: 60 | Plant response rating, Chamomile [3, 10]: 5 | Plant response rating, Chamomile [3, 11]: 80 | Plant response rating, Chamomile [3, 12]: 95 | Plant response rating, Chamomile [3, 13]: 100 | Plant response rating, Surinam Grass ([4]; 125 g ai/ha): 90 | Plant response rating, Surinam Grass ([4]; 250 g ai/ha): 90 | Plant response rating, Waterhemp [5]: 100 | Plant response rating: Field Violet [6, 14]: 100 | Plant response rating: Field Violet [6, 7]: 100 | Plant response rating: Field Violet [6, 8]: 95 | Plant response rating, Field Violet [6, 9]: 95 | Plant response rating, Field Violet [6, 10]: 90 | Plant response rating, Field Violet [6, 11]: 95 | Plant response rating, Field Violet [6, 12]: 95 | Plant response rating, Field Violet [6, 13]: 100
